What was measured:
[1] = tested on: SkBr3 (Her2 overexpressing breast cancer cells); test: Anti-proliferation activity against SkBr3 cells (MTS/PMS); format: cell-based; conditions: up to 100 μM
Method in brief: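 Cells seeded at 2000/well, attached overnight, then exposed to compound at varying concentrations (1% DMSO final) for 72 hours at 37° C. Viable cells read by MTS/PMS, normalised to 1% DMSO as 100% proliferation. IC50 from separate triplicate experiments.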

[2] = tested on: androgen receptor in LAPC-4 prostate cancer cells; test: Western blot of androgen receptor in LAPC-4 cells; format: cell-based; conditions: LAPC-4 cells (wild type androgen receptor), 24 hours
Method: FIG. 3 (top panel) is a western blot analysis of prostate cancer LNCaP cells treated with KU-1/A4. The bottom panel is a western blot analysis of prostate cancer LAPC-4 cells incubated with KU-1/A4. Actin was used as a control in both assays. […] Western blot analysis of the effects of KU-1/A4 on Hsp90 client proteins in prostate cancer LNCaP cells. Cells were treated with varying concentrations of KU-1/A4 for 24 hours and probed for the androgen receptor (“AR”), protein kinase […] (“AKT”), Hsp90, and actin.
The steroid hormone receptors are also dependent upon the Hsp90 protein folding machinery for activation and hormone binding. To determine whether KU-1/A4 had similar effects on the androgen receptor, KU-1/A4 was tested in both a mutated androgen receptor-dependent prostate cancer cell line (LNCaP) and a wild type androgen receptor prostate cancer cell line (LAPC-4). More specifically, the prostate cancer cells were grown in RPMI with 10% fetal calf serum in a standard fashion. Once the cells had reached near confluence, they were treated with vehicle (DMSO) or varying concentrations of KU-1/A4 ranging from 10 nm to 100 μM for 24 hours. Cells were harvested and cell lysates prepared. […] More specifically, Western Blot analysis protein concentrations in serum samples were determined by the Pierce BCA protein assay kit according to the manufacturer's protocol. […]

primary cortical neurons = test: Toxicity of drug alone in neuronal cells (Live-Dead assay); format: cell-based
Description: More specifically, primary cortical neurons were recovered from embryonic day 18 rat brains as described previously (Michaelis et al., Immunological Localization And Kinetic Characterization Of A Na+/Ca2+Exchanger In Neuronal And Nonneuronal Cells, Brain Res. 661 104-116 (1994)). Briefly, about 10 to 16 brains were removed from fetuses delivered by cesarean section, and the cortices dissected out. The neurons were isolated and suspended in DMEM/F12 supplemented with 10% FBS and plated on sterile dishes or cover slips coated with 10 μg/ml poly-D-lysine and 5 μg/ml mouse laminin. After 24 hours, the serum-containing medium was removed, and neurons were maintained in Neurobasal medium (Gibco) with 2% B-27 supplements (Gibco). Cells were maintained in culture at 37° C. in 5% CO2 and 97% humidity for 7 to 8 eight days in vitro (DIV) before use. […] Stock solutions of Aβ were prepared in sterile water at a concentration of 1.3 mM and stored at −20° C. Aliquots of the stock solutions were diluted to 1 mM in sterile 50 mM Tris-HCl, pH 7.4, and incubated at 37° C. for 24 hours to promote oligomerization of the peptides prior to treatment of the neurons. The effects of KU-1/A4, GA, Aβ, or the indicated combinations on neuronal viability were determined by monitoring cell survival using the Live-Dead assay as previously described. […] Digital images from 6 fields per dish were captured, and the number of viable (green) and dead (red) cells counted. All experiments were conducted with duplicate dishes from at least two neuronal preparations for each treatment, with about 1,000 cells analyzed/treatment condition. The data are expressed as the fraction of viable cells calculated from the total number of neurons counted under each treatment condition. The significance of differences between cultures exposed to various treatment conditions was determined using Student's t-test.

P-glycoprotein (P-gp) = P-glycoprotein (P-gp) (Bos taurus, UniProt A0A3Q1MB23); test: Rhodamine 123 uptake assay in BMECs
Chain of P-glycoprotein (P-gp) (A0A3Q1MB23 1-1267): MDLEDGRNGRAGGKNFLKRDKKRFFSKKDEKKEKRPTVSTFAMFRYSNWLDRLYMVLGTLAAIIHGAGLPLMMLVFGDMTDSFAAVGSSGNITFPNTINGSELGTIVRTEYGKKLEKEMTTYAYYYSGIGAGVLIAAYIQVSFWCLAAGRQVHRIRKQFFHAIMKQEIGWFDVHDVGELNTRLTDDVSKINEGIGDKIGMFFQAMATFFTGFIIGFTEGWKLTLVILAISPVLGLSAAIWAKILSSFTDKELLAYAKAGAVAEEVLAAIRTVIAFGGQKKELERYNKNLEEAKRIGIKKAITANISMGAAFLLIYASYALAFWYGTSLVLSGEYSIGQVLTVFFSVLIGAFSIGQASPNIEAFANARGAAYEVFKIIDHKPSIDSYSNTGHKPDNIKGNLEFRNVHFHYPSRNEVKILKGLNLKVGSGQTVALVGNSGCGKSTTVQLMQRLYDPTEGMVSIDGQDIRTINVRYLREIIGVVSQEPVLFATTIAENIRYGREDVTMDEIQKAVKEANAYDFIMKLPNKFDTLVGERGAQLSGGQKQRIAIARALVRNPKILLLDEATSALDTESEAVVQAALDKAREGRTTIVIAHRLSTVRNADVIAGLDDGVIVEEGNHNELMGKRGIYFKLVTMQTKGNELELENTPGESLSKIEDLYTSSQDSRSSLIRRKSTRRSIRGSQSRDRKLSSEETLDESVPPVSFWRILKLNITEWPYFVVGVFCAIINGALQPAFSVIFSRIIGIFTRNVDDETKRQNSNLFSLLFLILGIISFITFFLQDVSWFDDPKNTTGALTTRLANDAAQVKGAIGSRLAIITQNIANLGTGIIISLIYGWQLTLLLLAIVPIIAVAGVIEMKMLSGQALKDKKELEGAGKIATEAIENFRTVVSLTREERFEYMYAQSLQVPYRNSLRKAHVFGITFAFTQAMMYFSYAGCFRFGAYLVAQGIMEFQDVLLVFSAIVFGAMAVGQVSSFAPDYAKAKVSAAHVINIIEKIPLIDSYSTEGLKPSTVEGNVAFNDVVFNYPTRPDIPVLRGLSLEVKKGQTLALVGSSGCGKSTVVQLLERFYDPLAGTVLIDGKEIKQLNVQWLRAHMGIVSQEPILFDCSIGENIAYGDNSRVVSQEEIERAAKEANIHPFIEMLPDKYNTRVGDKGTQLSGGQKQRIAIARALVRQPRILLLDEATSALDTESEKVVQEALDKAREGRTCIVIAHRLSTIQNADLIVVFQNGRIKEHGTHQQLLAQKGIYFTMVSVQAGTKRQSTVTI
Method: Taxol (10 μM) was used as a positive p-glycoprotein substrate.

Structure (SMILES): CO[C@@H]1[C@@H](O)[C@@H](O)[C@H](Oc2ccc3cc(NC(C)=O)c(=O)oc3c2)OC1(C)C [KU-1/A4, N-(7-((2R,3R,4S,5R)-3,4-dihydroxy-5-methoxy-6,6-dimethyl-tetrahydro-2H-pyran-2-yloxy)-2-oxo-2H-chromen-3-yl)acetamide]
- anti-proliferative effects SkBr3 [1]: no anti-proliferative effects
- androgen receptor levels [2]: drastically reduced levels of the androgen receptor at lower concentrations
- neurotoxicity of compound alone (primary cortical neurons; 100 nM (20× the EC50)): did not result in any observed neurotoxicity
- toxic effects in neuronal cells (primary cortical neurons; 10 μM, 72 hours): no toxic effects
- toxicity of the drug alone to neurons (primary cortical neurons; primary neurons, drug alone): no toxicity
- P-gp substrate (P-glycoprotein (P-gp)): not a substrate for P-gp
- rhodamine 123 uptake (P-glycoprotein (P-gp); rhodamine 123 5 μM, Taxol 10 μM, KU-1/A4 up to 50 μM): no effect on uptake
